Experimental data taken from article PMC10938783, “A novel pan-PI3K inhibitor KTC1101 synergizes with anti-PD-1 therapy by targeting tumor suppression and immune activation” (Molecular Cancer, 2024).

Key:
PC3 tumors = assay: PC3 xenograft in BALB/c nude mice; assay type: in vivo, mouse
Experimental: BALB/c nude, NSG, and C57BL/6J mice were obtained from Tianjin Medical University. The housing temperature was controlled, ranging from 20.5–24 °C, and humidity was monitored but not controlled ranging from 30–70%. The 12-h daily light cycle was from 06:00 to 18:00. To generate a murine subcutaneous tumor model, PC3 and HSC2 cells were subcutaneously injected into the right lateral flank of 4- to 5-week-old male BALB/c nude mice. TMD8, CAL33, and S24 cells were subcutaneously injected into the right lateral flank of 4- to 5-week-old male NSG mice. When tumors reached a volume of 300–500 mm^3, they were excised, diced into 2 mm × 2 mm × 2 mm pieces, and implanted into the right flanks of BALB/c nude or NSG mice. Tumors were allowed to grow to a volume of 100 mm^3, and then the animals were randomly divided into several groups. Each group of five mice was treated with either vehicle or KTC1101 (25, 50, or 100 mg/kg, PO). Tumor size was measured every 3 d or 4 d until the endpoint. The tumor volume was calculated using the following formula: length × width × height/2. At the end of the experimental period, mice were euthanized by overdosing on pentobarbital sodium, and the tumors were removed. Tumor tissue was formalin-fixed and paraffin-embedded for histological analysis.

p-Akt, p-S6, Ki67 = assay: H&E and immunohistochemical staining of xenograft tumors; assay type: in vivo, mouse; details: IHC, PC3 and TMD8 xenografts
Experimental: H&E and IHC staining were performed as previously described. H&E staining was used to detect pathological changes in morphology. For histological analysis, formalin-fixed, paraffin-embedded tumors were sectioned, and slides were deparaffinized using xylene (Thermo Fisher). Endogenous peroxidases were quenched with 3% hydrogen peroxide in methanol. Staining was performed using antibodies against phosphorylated Akt (Ser473), phosphorylated S6 (Ser235/236), or Ki67. Counterstaining was performed with Mayer’s hematoxylin (Dako). Slides were observed under an Olympus CX21 microscope and scanned with a high-resolution digital slide scanner (Pannoramic 250, 3DHistech) to capture images.

Tregs = assay: T cell suppression assay (CFSE); assay type: cell-based, mouse
Experimental: Spleens from naive mice were isolated and ground through 70-μm filters to generate a single-cell suspension. After RBC lysis, single-cell suspensions were stained with CD3, CD8, CD4, CD25 or CD127 antibodies. Viable CD8^+ T cells (CD3^+CD8^+), CD4^+ T cells (CD3^+CD4^+), and Tregs (CD3^+CD4^+CD25^+CD127^low/−) from single-cell suspensions were sorted by FACS. Then T cells were labelled with […] in pre-warmed PBS for 10 min at 37 °C. The CFSE-labelled T cells were seeded in 96-well plates pre-coated with 10 μg/mL CD3 and 1 μg/mL CD28 antibodies and cultured in 1640 media with 10% FBS, 1 mM Sodium Pyruvate (Thermo, 11,360,070), 50 μM β-ME and 100 IU/mL IL2, as well as different concentrations of KTC1101 or solvent control. After 72 h, cells were harvested and the CFSE signal was measured by flow cytometry. Cell growth rate was calculated by the percentage of live, proliferated cell number at each drug concentration vs. solvent control.

COc1cc(N)cc2c1nc(C(F)F)n2-c1nc(N2CCCOCC2)nc(N2CCOCC2)n1 [KTC1101, 2-(difluoromethyl)-4-methoxy-1-(4-morpholino-6-(1,4-oxazepan-4-yl)-1,3,5-triazin-2-yl)-1H-benzo[d]imidazol-6-amine]
tumor growth (PC3 tumors; 25 mg/kg PO): significant delay in tumor growth | efficacy in inhibiting PC3 tumors (PC3 tumors; 50 mg/kg PO): equivalent to 200 mg/kg ZSTK474 | tumor growth (PC3 tumors; 100 mg/kg PO): Tumor growth arrest | Ki67 expression in tumor tissues (p-Akt, p-S6, Ki67): notable reduction in Ki67 expression | phosphorylation of AKT in tumor tissues (p-Akt, p-S6, Ki67): decreased phosphorylation of AKT | selective inhibition of Treg proliferation over CD8^+ T cells (Tregs): over a tenfold greater extent than CD8^+ T cells | IC50 (Tregs; Mus musculus, T-cell, 72 h, read-out: IC50 proliferation): 2.58 nM
